These results are taken from US8841269B2, “Polynucleotides for use in treating and diagnosing cancers” (Creighton University, priority 2010, dated 2014).

Holding throughout (assay type): cell-based, human
The subject of one data set is ER-α36 mRNA. The data set can be described thus: Real-time PCR of ER-α36 mRNA after transfection. The settings on record: for ER-α36 mRNA expression: MDA-MB-231, mimics, vs negative control miRNA; for ER-α36 mRNA level: MDA-MB-231, two days post transfection. On the procedure: To assess the expression levels of ER-α66 and ER-α36 with real-time PCR, total RNA was extracted using Trizol reagent (Invitrogen, Carsbad, Calif.). One microgram RNA was used for cDNA synthesis with the SuperScript III first-strand synthesis system (Invitrogen, Carsbad, Calif.). After 10 dilution, 4 μL cDNA was used in 20 μL reaction volume, which includes 4 μL of 1.5 μmol/L primers, 2 μL of 2 μmol/L probes, and 10 μL TaqMan universal PCR master mix with ampErase UNG (Applied Biosystems). The reaction condition was the same as miRNA real-time PCR. β-Actin was the internal control (Applied Biosystems, Foster City, Calif.). The primers for ER-α66 are: 5′-GCGGCCACGGACCAT (forward) (SEQ ID NO:20); 5′-[…] (SEQ ID NO:21) (reverse); 5′-FAM-[…]-TAMRA-3′ (probe) (SEQ ID NO:22). The primers for ER-α36 are: 5′-[…] (forward) (SEQ ID NO:23); 5′-[…] (reverse) (SEQ ID NO:24); 5′-[…] TAMRA-3′ (probe) (SEQ ID NO:43).
Let-7 miRNA or negative control #1 miRNA of 60 nmol/L (Ambion, Austin, Tex.) was transfected into cells with the siPORT NeoFX reagent (Ambion, Austin, Tex.) following the manufacturer's protocol.

The nature of data set [1]: Real-time PCR quantification of mature let-7 after mimic transfection in MCF7. The settings on record: for rank of forced expression throughout the time course: MCF7, relative quantity against RNU48. On the procedure:
Quantitative real-time PCR. For miRNA quantification in FFPE tissues, total RNA was extracted as described above; for miRNA quantification in cell lines, total RNA was isolated using mirVana miRNA Isolation Kit (Ambion Inc.). cDNA was synthesized by using 100 ng total RNA in a reaction volume of 15 μL, by following the protocol of Taqman miRNA Reverse Transcription Kit (Applied Biosystems). After 15 times dilution, 9 μL cDNA was used for real-time PCR in a 20 μL reaction volume, including 10 μL of master mix and 1 μL Taqman probe (Applied Biosystems). This reaction system only detects mature miRNAs not pre-miRNAs. The level of each miRNA was expressed following the 2^−ΔΔCt or […] method using the small nuclear RNA, RNU48, as the internal reference.
For FFPE tissues, there was the same repeat number as in microarray; for cell lines, there were three biological repeats. Each sample had three technical repeats on the PCR plate. Real-time PCR was performed on an Applied Biosystems 7900HT real-time PCR instrument. PCR was initiated by two holds of 52° C. 2 min and 94° C. 10 min each, followed by 40 cycles of 15 s at 95° C. and 1 min at 60° C.
On the technique in general: Real-time PCR tracks product formation cycle by cycle.

A further data set relates to MCF7 cells. Briefly: MTT cell proliferation assay in MCF7. As to conditions: for cell growth (MTT) with E2: MCF7, E2 free medium with addition of 10 nmol/L E2; for cell growth (MTT): MCF7, E2 free medium with or without addition of 10 nmol/L E2 (FIG. 9B-D); for day from which significant effect on proliferation was detected / cell proliferation (MTT): MCF7, normal growth medium; for cell proliferation (MTT): 60 nmol/L. On the procedure:
MTT cell proliferation assay. MCF7 cells were transfected with let-7 mimics or negative controls (60 nmol/L) in normal growth medium for 1 day, or in medium with 2.5% charcoal-stripped FBS for 2 days to exhaust endogenous estrogen, following the protocol of siPORT NeoFX Transfection Agent (Applied Biosystems). For the experiment in normal growth medium, 10^4 cells in the volume of 100 μL were seeded in a 96-well plate for 12 hours and assay lasted for another 4 days. For experiments in E2 free medium, 1.5 10^4 cells were seeded in a 96-well plate for 12 hours and then exposed to 10 nmol/L E2, or not, for up to 4 days. For both experiments, each treatment had 12 replicates on the plate. The cells were then incubated in 0.83 mg/mL 3-[4,5-dimethylthiazol-2-yl]-2,5-diphenyltetrazolium bromide (MTT) in growth medium at 37° C. for 4 h and lysed in 100 μL of DMSO at room temperature for 15 min. The absorbance in each well was measured at 490 nm by an ELx800 Absorbance Microplate Reader (Biotek). Cell proliferation was normalized to day 0.
(In general: Formazan colour is commonly taken as a measure of viable cells.)

Another data set has as its system pS2. The data set can be described thus: Immunoblot of pS2 after transfection in MCF7. As to conditions: MCF7, mimics; for expression of pS2 (protein): after 2 days; for protein expression of pS2: after 6 days. An excerpt: Immunoblot analysis. For Western blot in FFPE tissues, an established method was followed (Addis et al., 2009, Proteomics 9:3815-23). For MCF7 cell line, let-7 mimics and negative control miRNA (60 nmol/L), or let-7 inhibitors and anti-miR negative control (60 nmol/L) were transfected following the protocol of siPORT NeoFX Transfection Agent (Applied Biosystems), The Western blot procedure was described before (Zhang et al., 2010, J Proteome Res., 9(2):980-989). Antibody information is as follows: ER-α, RB-9016-P1, Thermoscientific; Cyclin D1, sc-8396, Santa Cruz; pS2, ab80782 was Abeam; β-Actin, sc-69879, Santa Cruz.
Background: In western blotting, separated proteins are transferred to a membrane and probed.

Data set [2] deals with estrogen response element (ERE) construct. The data set can be described thus: ERE luciferase assay (2 ERE-tk-Luc), genomic estrogen pathway in MCF7. The settings on record: for ERE luciferase activity: MCF7, p2 ERE-tk-Luc, 10 nmol/L E2 12 hours, p<0.01; for luciferase activity of the ERE construct: MCF7 cell line. On the procedure:
For checking on the genomic estrogen pathway, 10^5 MCF7 cells were first seeded into each well on a 24-well plate and cultured in IMEM with 2.5% charcoal-stripped FBS for 2 days. Then the cells were transfected as described above except that the estrogen response element (ERE) construct (2 ERE-tk-Luc; obtained from Katarine Pettersson, Karolinska Institute, Stockholm) replaced the pMIR-REPORT plasmid for 1 day. After stimulation with 10 nmol/L E2 for 12 hours, luciferase activity was measured as described above.

[3] abbreviates: MCF7, one day post transfection, 60 nmol/L each.

Turning to “let-7i: let-7i miRNA (mimic), 3′-UUGUCGUGUUUGAUGAUGGAGU-5′ (SEQ ID NO:14) (chemistry not given here; listed 3' to 5')”, in the data set on ER-α36 mRNA, the “ER-α36 mRNA expression” value is given as 30 % of the controls and the “ER-α36 mRNA level” value is reported as “inhibited”. The “rank of forced expression throughout the time course” value in data set [1] is listed as “in the middle”. In the data set with MCF7 cells, the “cell growth (MTT) with E2” value is listed as “consistent inhibition”, the “cell growth (MTT)” value is given as “strongly inhibited”, the “day from which significant effect on proliferation was detected” value was 3 days and the “cell proliferation (MTT)” value is “significantly inhibited cell proliferation”. For the same substance, in the data set on pS2, the “expression of pS2 (protein)” value is “significantly inhibited” and the “protein expression of pS2” value is reported as “significantly suppressed”. In addition, in data set [2], the ERE luciferase activity entry is on record as “about 60 % of negative control” and the “luciferase activity of the ERE construct” value is “inhibit the luciferase activity of the ERE construct”.

In the case of “let-7b: let-7b miRNA (mimic), 3′-UUGGUGUGUUGGAUGAUGGAGU-5′ (SEQ ID NO:8) (chemistry not given here; listed 3' to 5')”, in the data set with ER-α36 mRNA, the “ER-α36 mRNA expression” value is reported as 30 % of the controls and the “ER-α36 mRNA level” value is reported as “inhibited”. Also, the “expression of let-7b relative to let-7a and let-7i” value in data set [1] (MCF7, after 2 days) turned out to be 2. Further, the “mature let-7b level relative to let-7a” value in data set [1] (MCF7, after 6 days) is roughly 10. For the same substance, in data set [1] (setting [3]), the “mature let-7b level relative to let-7a” value is roughly 20 and the “mature let-7b level relative to let-7i” value was roughly 6. Also, in data set [1], the “rank of forced expression throughout the time course” value is “highest expression”. Moreover, in the data set with MCF7 cells, the “cell growth (MTT) with E2” value is recorded as “consistent inhibition”, the “cell growth (MTT)” value was “strongly inhibited”, the “day from which significant effect on proliferation was detected” value was 2 days and the “cell proliferation (MTT)” value is recorded as “significantly inhibited cell proliferation”. Also, in the data set with pS2, the “expression of pS2 (protein)” value is listed as “significantly inhibited” and the “protein expression of pS2” value was “significantly suppressed”. Further, in data set [2], the ERE luciferase activity entry is given as “about 40 % of negative control” and the “luciferase activity of the ERE construct” value was “inhibit the luciferase activity of the ERE construct”.
